# In PMC5218480 (PLoS ONE, 2017):
# Tested on: MV-4-11 cells
# Assay: Gene expression microarray analysis (Affymetrix PrimeView) and GSEA
# Format: cell-based, human
# Design: RFU PODN (11730768_x_at) / Fold change /veh PODN (11730768_x_at) / RFU LINC00158 (11744669_a_at) / Fold change /veh LINC00158 (11744669_a_at) / RFU DUSP10 (11751237_a_at) / Fold change /veh DUSP10 (11751237_a_at) / RFU ID3 (11757404_x_at) / Fold change /veh ID3 (11757404_x_at) / RFU PLEKHG5 (11737974_s_at) / Fold change /veh PLEKHG5 (11737974_s_at) / RFU LRRC4B (11730491_at) / Fold change /veh LRRC4B (11730491_at) / RFU GIMAP4 (11747438_a_at) / Fold change /veh GIMAP4 (11747438_a_at) / RFU KRT8 (11758183_x_at) / Fold change /veh KRT8 (11758183_x_at) / RFU CNN1 (11734310_a_at) / Fold change /veh CNN1 (11734310_a_at) / RFU VPS37D (11726825_at) / Fold change /veh VPS37D (11726825_at) / RFU C10orf10 (11716522_x_at) / Fold change /veh C10orf10 (11716522_x_at) / RFU KIR2DL2 /// KIR2DL4 /// KIR2DL5A /// KIR2DL5B /// KIR2DS1 /// KIR2DS2 /// KIR2DS3 /// KIR2DS4 /// KIR3DL3 /// KIR3DL3 /// KIR3DS1 (11738374_at) / Fold change /veh KIR2DL2 /// KIR2DL4 /// KIR2DL5A /// KIR2DL5B /// KIR2DS1 /// KIR2DS2 /// KIR2DS3 /// KIR2DS4 /// KIR3DL3 /// KIR3DL3 /// KIR3DS1 (11738374_at) / RFU C1QL1 (11718748_at) / Fold change /veh C1QL1 (11718748_at) / RFU TMPRSS4 (11747572_a_at) / Fold change /veh TMPRSS4 (11747572_a_at) / RFU HAMP (11756126_x_at) / Fold change /veh HAMP (11756126_x_at) / RFU RNFT2 (11725882_a_at) / Fold change /veh RNFT2 (11725882_a_at) / RFU NR4A2 (11747474_a_at) / Fold change /veh NR4A2 (11747474_a_at) / RFU ABCC12 (11746883_a_at) / Fold change /veh ABCC12 (11746883_a_at) / RFU TMEM136 (11760407_x_at) / Fold change /veh TMEM136 (11760407_x_at) / RFU CLDN22 /// WWC2 (11732394_at) / Fold change /veh CLDN22 /// WWC2 (11732394_at) / RFU HLA-DPB1 (11760878_x_at) / Fold change /veh HLA-DPB1 (11760878_x_at) / RFU SPINT1 (11716480_a_at) / Fold change /veh SPINT1 (11716480_a_at) / RFU GAP43 (11754022_s_at) / Fold change /veh GAP43 (11754022_s_at) / RFU A4GNT (11735810_at) / Fold change /veh A4GNT (11735810_at) / RFU PRB3 (11715151_x_at) / Fold change /veh PRB3 (11715151_x_at) / RFU TUBB4B (11761932_at) / Fold change /veh TUBB4B (11761932_at) / RFU CAPN14 (11732068_a_at) / Fold change /veh CAPN14 (11732068_a_at) / RFU TMCC2 (11721928_a_at) / Fold change /veh TMCC2 (11721928_a_at) / RFU IRGQ (11745062_a_at) / Fold change /veh IRGQ (11745062_a_at) / RFU FAM174B (11720279_a_at) / Fold change /veh FAM174B (11720279_a_at) / RFU TMPRSS4 (11748680_a_at) / Fold change /veh TMPRSS4 (11748680_a_at) / RFU FAM212B (11763350_a_at) / Fold change /veh FAM212B (11763350_a_at) / RFU PLEKHG5 (11743358_a_at) / Fold change /veh PLEKHG5 (11743358_a_at) / RFU ZSCAN30 (11745921_a_at) / Fold change /veh ZSCAN30 (11745921_a_at) / RFU CMKLR1 (11741424_a_at) / Fold change /veh CMKLR1 (11741424_a_at) / RFU LOC101060620 /// MAPK8IP1 (11723275_at) / Fold change /veh LOC101060620 /// MAPK8IP1 (11723275_at) / RFU SPTSSB (11747773_x_at) / Fold change /veh SPTSSB (11747773_x_at) / RFU PRSS12 (11739890_at) / Fold change /veh PRSS12 (11739890_at) / RFU BIN1 (11741810_x_at) / Fold change /veh BIN1 (11741810_x_at) / RFU WNT11 (11732464_a_at) / Fold change /veh WNT11 (11732464_a_at) / RFU C10orf10 (11716521_a_at) / Fold change /veh C10orf10 (11716521_a_at) / RFU C5orf56 (11738089_at) / Fold change /veh C5orf56 (11738089_at) / RFU CYB561 (11721691_x_at) / Fold change /veh CYB561 (11721691_x_at) / RFU ANKRD19P (11752326_a_at) / Fold change /veh ANKRD19P (11752326_a_at) / RFU OR2T12 /// OR2T33 /// OR2T8 (11738714_s_at) / Fold change /veh OR2T12 /// OR2T33 /// OR2T8 (11738714_s_at) / RFU VCAN (11748164_a_at) / Fold change /veh VCAN (11748164_a_at) / RFU JSRP1 (11732532_at) / Fold change /veh JSRP1 (11732532_at) / RFU KRTAP10-11 (11738290_x_at) / Fold change /veh KRTAP10-11 (11738290_x_at) / RFU MYO3A (11730013_a_at) / Fold change /veh MYO3A (11730013_a_at) / RFU EBF3 (11725865_a_at) / Fold change /veh EBF3 (11725865_a_at) / RFU CAMK2N1 (11719241_x_at) / Fold change /veh CAMK2N1 (11719241_x_at) / RFU C5orf56 (11738088_a_at) / Fold change /veh C5orf56 (11738088_a_at) / RFU OLFML3 (11715873_a_at) / Fold change /veh OLFML3 (11715873_a_at) / RFU LOC100653217 /// NTM (11731650_a_at) / Fold change /veh LOC100653217 /// NTM (11731650_a_at) / RFU MAPK11 (11762145_a_at) / Fold change /veh MAPK11 (11762145_a_at) / RFU FIZ1 (11724087_x_at) / Fold change /veh FIZ1 (11724087_x_at) / RFU OASL (11726364_x_at) / Fold change /veh OASL (11726364_x_at) / RFU SOX15 (11748057_x_at) / Fold change /veh SOX15 (11748057_x_at) / RFU CD79A (11719716_a_at) / Fold change /veh CD79A (11719716_a_at) / RFU HIST1H1D (11736915_at) / Fold change /veh HIST1H1D (11736915_at) / RFU CASKIN2 (11723855_a_at) / Fold change /veh CASKIN2 (11723855_a_at) / RFU LOC730098 (11760151_x_at) / Fold change /veh LOC730098 (11760151_x_at) / RFU OR4N2 (11742367_at) / Fold change /veh OR4N2 (11742367_at) / RFU PRRT2 (11749266_a_at) / Fold change /veh PRRT2 (11749266_a_at) / RFU SNX32 (11753110_a_at) / Fold change /veh SNX32 (11753110_a_at) / RFU CDHR5 (11726645_a_at) / Fold change /veh CDHR5 (11726645_a_at) / RFU RCAN1 (11760418_a_at) / Fold change /veh RCAN1 (11760418_a_at) / RFU FAM167A (11723789_a_at) / Fold change /veh FAM167A (11723789_a_at) / RFU FAM26E (11764081_at) / Fold change /veh FAM26E (11764081_at) / RFU ISYNA1 (11749810_s_at) / Fold change /veh ISYNA1 (11749810_s_at) / RFU ACY1 (11761880_at) / Fold change /veh ACY1 (11761880_at) / RFU 11764098_at / Fold change /veh 11764098_at / RFU SAMD14 (11745864_x_at) / Fold change /veh SAMD14 (11745864_x_at) / RFU NPB (11741838_a_at) / Fold change /veh NPB (11741838_a_at) / RFU TMPRSS6 (11731388_a_at) / Fold change /veh TMPRSS6 (11731388_a_at) / RFU KRTAP10-2 (11738614_at) / Fold change /veh KRTAP10-2 (11738614_at) / RFU ARHGAP8 /// PRR5-ARHGAP8 (11727945_x_at) / Fold change /veh ARHGAP8 /// PRR5-ARHGAP8 (11727945_x_at) / RFU KRTAP5-7 /// NADSYN1 (11734609_at) / Fold change /veh KRTAP5-7 /// NADSYN1 (11734609_at) / RFU RASL12 (11751679_a_at) / Fold change /veh RASL12 (11751679_a_at) / RFU CDKN2B (11736163_a_at) / Fold change /veh CDKN2B (11736163_a_at) / RFU PRF1 (11729649_at) / Fold change /veh PRF1 (11729649_at) / RFU, ZNF638 /// ZNF638-IT1 / Fold change vs veh, ZNF638 /// ZNF638-IT1 / RFU, PANK3 / Fold change vs veh, PANK3 / RFU, SH3YL1 / Fold change vs veh, SH3YL1 / RFU, ZEB2 / Fold change vs veh, ZEB2 / RFU, NRIP1 / Fold change vs veh, NRIP1 / RFU, PTTG1IP / Fold change vs veh, PTTG1IP / RFU, CAPN2 / Fold change vs veh, CAPN2 / RFU, MED14 / Fold change vs veh, MED14 / RFU, SNORA58 / Fold change vs veh, SNORA58 / RFU, C1orf63 / Fold change vs veh, C1orf63 / RFU, LRRFIP1 / Fold change vs veh, LRRFIP1 / RFU, NDUFAF7 / Fold change vs veh, NDUFAF7 / RFU, SLC12A2 / Fold change vs veh, SLC12A2 / RFU, IBTK / Fold change vs veh, IBTK / RFU, ESF1 / Fold change vs veh, ESF1 / Fold change vs veh, TMEM50B / RFU, TAOK1 / Fold change vs veh, TAOK1 / RFU, ACBD3 / Fold change vs veh, ACBD3 / RFU, TMA16 / Fold change vs veh, TMA16 / RFU, RWDD3 / Fold change vs veh, RWDD3 / RFU, BCAT1 / Fold change vs veh, BCAT1 / RFU, EDEM3 / Fold change vs veh, EDEM3 / RFU, TMEM33 / Fold change vs veh, TMEM33 / RFU, WDR75 / Fold change vs veh, WDR75 / RFU, AHCTF1 / Fold change vs veh, AHCTF1 / RFU, TFRC / Fold change vs veh, TFRC / RFU, ZDHHC17 / Fold change vs veh, ZDHHC17 / RFU, NOM1 / Fold change vs veh, NOM1 / RFU, ARL8B / Fold change vs veh, ARL8B / RFU, ZBTB11 / Fold change vs veh, ZBTB11 / RFU, TAMM41 / Fold change vs veh, TAMM41 / RFU, KIAA1704 /// LOC100996395 / Fold change vs veh, KIAA1704 /// LOC100996395 / RFU, ING1 / Fold change vs veh, ING1 / RFU, TRMT61B / Fold change vs veh, TRMT61B / RFU, FUBP3 / Fold change vs veh, FUBP3 / RFU, TP53 / Fold change vs veh, TP53 / RFU, TNKS2 / Fold change vs veh, TNKS2 / RFU, ZFP14 / Fold change vs veh, ZFP14 / RFU, ACTR2 / Fold change vs veh, ACTR2 / RFU, PPP3R1 / Fold change vs veh, PPP3R1 / RFU, PIK3R1 / Fold change vs veh, PIK3R1 / RFU, HNRNPA1 / Fold change vs veh, HNRNPA1 / RFU, RNF170 / Fold change vs veh, RNF170 / RFU, ZNF28 / Fold change vs veh, ZNF28 / RFU, RNGTT / Fold change vs veh, RNGTT / RFU, OGT / Fold change vs veh, OGT / RFU, BRD1 / Fold change vs veh, BRD1 / RFU, MARS / Fold change vs veh, MARS / RFU, ZNF655 / Fold change vs veh, ZNF655 / RFU, FAHD1 / Fold change vs veh, FAHD1 / RFU, BDP1 / Fold change vs veh, BDP1 / RFU, LRRCC1 / Fold change vs veh, LRRCC1 / RFU, ARID1A / Fold change vs veh, ARID1A / RFU, ZNF146 / Fold change vs veh, ZNF146 / RFU, ZNF330 / Fold change vs veh, ZNF330 / RFU, GPN3 / Fold change vs veh, GPN3 / RFU, C9orf123 / Fold change vs veh, C9orf123 / RFU, N4BP2L2 / Fold change vs veh, N4BP2L2 / RFU, ARFIP1 / Fold change vs veh, ARFIP1 / RFU, FAM179B / Fold change vs veh, FAM179B / RFU, BCL10 / Fold change vs veh, BCL10 / RFU, UHRF1BP1L / Fold change vs veh, UHRF1BP1L / RFU, BET1 / Fold change vs veh, BET1 / RFU, CNOT2 / Fold change vs veh, CNOT2 / RFU, ZNF268 / Fold change vs veh, ZNF268 / Fold change vs veh, ZNF507 / RFU, DGCR2 / Fold change vs veh, DGCR2 / RFU, WDSUB1 / Fold change vs veh, WDSUB1 / Fold change vs veh, HSP90B1 /// MIR3652 / RFU, ADSS / Fold change vs veh, ADSS / RFU, GK / Fold change vs veh, GK / RFU, ZNF148 / Fold change vs veh, ZNF148 / RFU, TAF9 / Fold change vs veh, TAF9 / RFU, SLC1A5 / Fold change vs veh, SLC1A5 / RFU, SLMO2 / Fold change vs veh, SLMO2 / RFU, ABCC4 / Fold change vs veh, ABCC4 / RFU, LOC101060439 /// RAP1B / Fold change vs veh, LOC101060439 /// RAP1B / RFU, RFX7 / Fold change vs veh, RFX7 / RFU, GTPBP10 / Fold change vs veh, GTPBP10 / RFU, CNEP1R1 / Fold change vs veh, CNEP1R1 / RFU, BIVM-ERCC5 /// ERCC5 / Fold change vs veh, BIVM-ERCC5 /// ERCC5 / RFU, ILF3 / Fold change vs veh, ILF3 / RFU 11762660_at / Fold change /veh 11762660_at / RFU VCAN (11757783_s_at) / Fold change /veh VCAN (11757783_s_at) / RFU DDX43 (11728927_at) / Fold change /veh DDX43 (11728927_at) / RFU KRT8 (11758188_x_at) / Fold change /veh KRT8 (11758188_x_at) / RFU NKD1 (11759106_at) / Fold change /veh NKD1 (11759106_at) / RFU SRD5A1 (11742802_a_at) / Fold change /veh SRD5A1 (11742802_a_at) / RFU TPSAB1 /// TPSB2 (11721975_s_at) / Fold change /veh TPSAB1 /// TPSB2 (11721975_s_at) / RFU GSTM3 (11746129_a_at) / Fold change /veh GSTM3 (11746129_a_at) / RFU IL23R (11737362_x_at) / Fold change /veh IL23R (11737362_x_at) / RFU TMEM51 (11727254_a_at) / Fold change /veh TMEM51 (11727254_a_at) / RFU PIWIL2 (11732686_x_at) / Fold change /veh PIWIL2 (11732686_x_at) / RFU ORM1 (11744905_x_at) / Fold change /veh ORM1 (11744905_x_at) / RFU CCDC152 (11743942_at) / Fold change /veh CCDC152 (11743942_at) / RFU ECM1 (11717891_a_at) / Fold change /veh ECM1 (11717891_a_at) / RFU IL23R (11748794_a_at) / Fold change /veh IL23R (11748794_a_at) / RFU TNFAIP8L3 (11732012_x_at) / Fold change /veh TNFAIP8L3 (11732012_x_at) / RFU MBOAT4 (11741988_at) / Fold change /veh MBOAT4 (11741988_at) / RFU 11764193_at / Fold change /veh 11764193_at / RFU TMEM53 (11763286_at) / Fold change /veh TMEM53 (11763286_at) / RFU MAGEB2 (11727129_at) / Fold change /veh MAGEB2 (11727129_at) / RFU TMEM200A (11744735_a_at) / Fold change /veh TMEM200A (11744735_a_at) / RFU CCDC152 (11751479_a_at) / Fold change /veh CCDC152 (11751479_a_at) / RFU FAM211A (11726209_a_at) / Fold change /veh FAM211A (11726209_a_at) / RFU RGS16 (11746705_a_at) / Fold change /veh RGS16 (11746705_a_at) / RFU VCAN (11755009_s_at) / Fold change /veh VCAN (11755009_s_at) / RFU RHOB (11743442_s_at) / Fold change /veh RHOB (11743442_s_at) / RFU RGS16 (11720943_a_at) / Fold change /veh RGS16 (11720943_a_at) / RFU RGS16 (11720944_at) / Fold change /veh RGS16 (11720944_at) / RFU, VPS4B / Fold change vs veh, VPS4B / RFU, CREB1 / Fold change vs veh, CREB1 / RFU, DNAJC13 / Fold change vs veh, DNAJC13 / RFU, GNAQ / Fold change vs veh, GNAQ / RFU, CDK5R1 / Fold change vs veh, CDK5R1 / RFU, ZRANB3 / Fold change vs veh, ZRANB3 / RFU, CUL4A / Fold change vs veh, CUL4A / RFU, CCNY / Fold change vs veh, CCNY / RFU, UFL1 / Fold change vs veh, UFL1 / RFU, COG3 / Fold change vs veh, COG3 / RFU, DIAPH2 / Fold change vs veh, DIAPH2 / RFU, SKA2 / Fold change vs veh, SKA2 / RFU, AFF3 / Fold change vs veh, AFF3 / RFU, LMF1 / Fold change vs veh, LMF1 / RFU, IPO11 / Fold change vs veh, IPO11 / RFU, DFFB / Fold change vs veh, DFFB / RFU, FOXP1 / Fold change vs veh, FOXP1 / RFU, CARD8 / Fold change vs veh, CARD8 / RFU, STRN3 / Fold change vs veh, STRN3 / RFU, ADK / Fold change vs veh, ADK / RFU, RASSF2 / Fold change vs veh, RASSF2 / RFU, WIPF1 / Fold change vs veh, WIPF1 / RFU, LARP1B / Fold change vs veh, LARP1B / RFU, RASA1 / Fold change vs veh, RASA1 / RFU, RB1 / Fold change vs veh, RB1 / RFU, PPFIA1 / Fold change vs veh, PPFIA1 / RFU, MAT2A / Fold change vs veh, MAT2A / RFU, CCT5 / Fold change vs veh, CCT5 / RFU, WDR92 / Fold change vs veh, WDR92 / RFU, CUX1 / Fold change vs veh, CUX1 / RFU, TTC7A / Fold change vs veh, TTC7A / RFU, TMEM135 / Fold change vs veh, TMEM135 / RFU, DEPTOR / Fold change vs veh, DEPTOR / RFU, CPM / Fold change vs veh, CPM / RFU, DNAJB6 / Fold change vs veh, DNAJB6 / RFU, CACNA2D3 / Fold change vs veh, CACNA2D3 / RFU, DTX4 / Fold change vs veh, DTX4 / RFU, TFCP2 / Fold change vs veh, TFCP2 / RFU, GMCL1 /// GMCL1P1 / Fold change vs veh, GMCL1 /// GMCL1P1 / RFU, AEBP2 / Fold change vs veh, AEBP2 / RFU, SNHG1 /// SNORD22 /// SNORD25 /// SNORD26 /// SNORD27 /// SNORD28 /// SNORD29 /// SNORD31 / Fold change vs veh, SNHG1 /// SNORD22 /// SNORD25 /// SNORD26 /// SNORD27 /// SNORD28 /// SNORD29 /// SNORD31 / Fold change (Aza/veh), C12orf56 (ProbeSet 11735607_a_at) / Fold change (ACY-1035/veh), C12orf56 (ProbeSet 11735607_a_at) / Fold change (Aza/veh), FGFR1OP (ProbeSet 11751329_s_at) / Fold change (ACY-1035/veh), FGFR1OP (ProbeSet 11751329_s_at) / Fold change (Aza/veh), VPS36 (ProbeSet 11739960_a_at) / Fold change (ACY-1035/veh), VPS36 (ProbeSet 11739960_a_at) / RFU SYPL1 (11715823_x_at) / Fold change /veh SYPL1 (11715823_x_at) / RFU IGFBP7 (11715501_s_at) / Fold change /veh IGFBP7 (11715501_s_at) / RFU REEP3 (11722064_at) / Fold change /veh REEP3 (11722064_at) / RFU IGLL1 (11728026_x_at) / Fold change /veh IGLL1 (11728026_x_at): dose or concentration left out as unconfirmed
# Details: ProbeSet 11731583_a_at; LIST D
smiles,measurement,value
Nc1ccc(-c2cccs2)cc1NC(=O)c1ccc2c(c1)cc(C1CC1)n2CCN1CCOCC1 [ACY-1035],"Fold change vs veh, LARP1B",0.85
